US20240216354A1, “IMMUNOMODULATORY IMIDE DRUGS AS ZETA-CHAIN-ASSOCIATED PROTEIN KINASE 70 (ZAP70) AGONISTS AND USES THEREOF” (Dana-Farber Cancer Institute, Inc., priority 2019, published 2024)

Columns and labels:
Type in all cases: cell-based
Zap-70 [1] = target: T1, Zap-70 (Homo sapiens, UniProt P43403); assay: Immunoblotting of p-Zap-70 in NK-92 cells; settings: 24 h, Pom 0.5 and 1 μM, CC-220 0.01, 0.1, 1 μM
T1 sequence (P43403 1-619): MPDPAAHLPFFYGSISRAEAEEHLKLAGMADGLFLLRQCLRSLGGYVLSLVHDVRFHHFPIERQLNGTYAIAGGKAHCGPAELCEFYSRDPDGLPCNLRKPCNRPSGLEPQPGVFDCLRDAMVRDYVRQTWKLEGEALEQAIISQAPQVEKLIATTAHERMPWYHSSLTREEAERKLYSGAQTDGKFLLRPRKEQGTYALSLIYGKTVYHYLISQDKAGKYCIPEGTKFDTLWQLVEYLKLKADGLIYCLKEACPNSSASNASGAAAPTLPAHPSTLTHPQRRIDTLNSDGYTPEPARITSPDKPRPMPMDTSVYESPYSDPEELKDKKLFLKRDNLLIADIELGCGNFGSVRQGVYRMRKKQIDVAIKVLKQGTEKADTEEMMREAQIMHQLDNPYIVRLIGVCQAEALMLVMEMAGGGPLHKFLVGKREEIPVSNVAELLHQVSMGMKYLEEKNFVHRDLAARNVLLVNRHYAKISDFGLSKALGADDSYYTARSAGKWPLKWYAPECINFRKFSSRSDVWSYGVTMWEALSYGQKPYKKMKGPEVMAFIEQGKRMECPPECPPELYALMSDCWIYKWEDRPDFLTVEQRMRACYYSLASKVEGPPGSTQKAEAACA
Protocol: (§1) (A) NK-92 cells were cultured with Pom (0.5 and 1 μM) for 24 h. Whole cell lysates were subjected to immunoblotting using indicated Abs. (B) NK-92 cells were cultured with Pom (0.5 and 1 μM) for 48 h. The cells were subsequently incubated with calcein-AM-stained U266 cells for 4 h at the indicated effector/target (E/T) ratios. Percent specific lysis was calculated as described previously. (C) NK-92 cells were cultured with Pom (0.03-3 μM) for 72 h. Cell growth was assessed by MTT assay. (D) NK-92 cells were transfected with scrambled (Sc) or Zap-70 siRNA (Zap70si). After 72 h incubation, cell viability was measured by trypan-blue dye exclusion. For B, C, and D, data are representative of at least two independent experiments, and values are expressed in mean±SD.
(§2) (A) NK-92 cells were cultured with Len (1 μM), Pom (0.01, 0.1, 1 μM) or CC-220 (0.01, 0.1, 1 μM) for 24 h. Whole cell lysates were subjected to immunoblotting using indicated Abs. (B) NK-92 cells were cultured with Pom (0.1 and 1 μM) or CC-220 ([…]) for 48 h. NK cell activity was measured by incubation with calcein AM-labeled U266 cells for 4 h at E/T ratio of 2.5/1. Percent specific lysis was calculated as previously described. Data are representative of three independent experiments, and values are expressed in mean±SD. *: p<0.01.

Zap-70 [2] = target: T1, Zap-70; assay: Immunoblotting of p-Zap-70 in Jurkat cells; settings: 16 h
Protocol: (§3) (A) PBMCs were cultured with pomalidomide (“Pom”) (0.01-1 μM) for 16 h. […] (B) PBMCs were cultured with pomalidomide (0.1 and 1 μM) for the indicated time periods. (C) PBMCs were cultured with lenalidomide (“Len”) (1 μM) for 16 h. (D) Primary T-cells from healthy volunteer were cultured with pomalidomide (0.25-1 μM) for 16 h. (E) Jurkat cells were cultured with pomalidomide (0.5 and 1 μM) for 16 h. Whole cell lysates were subjected to immunoblotting (A-E) using indicated Abs. (F) Jurkat cells were cultured with pomalidomide (0.01-1 μM) or lenalidomide (0.01-1 μM) for 72 h. Cell growth was assessed by MTT assay.
(A) Jurkat cells were transfected with scrambled siRNA (Scsi) or CRBN siRNA (CRBNsi). Whole cell lysates were subjected to immunoblotting using indicated Abs. (B) Jurkat cells transfected with Scsi or CRBNsi were cultured with pomalidomide (1 μM) for 16 h. Whole cell lysates were subjected to immunoblotting using indicated Abs. (C) Jurkat cells were transfected with Scsi or Zap-70 siRNA (Zap-70si) (left panel). The transfectants were further cultured for 72 h, and cell growth was assessed by MTT assay (right panel).

Zap-70 [3] = target: T1, Zap-70; assay: Immunoblotting of p-Zap-70, p-LAT and p-ERK in PBMCs; set-up: endogenous in cells; host or cells: primary PBMCs, primary T cells and primary NK cells from healthy volunteers
Protocol: as §3
To characterize the effect of IMiDs on Zap-70 function in immune effector cells, pomalidomide triggered phosphorylation of Zap-70 was evaluated along with its known downstream target linker of activated T-cells (LAT) in PBMCs from healthy volunteers. […] Image J densitometric analysis confirmed 42% increased p-Zap-70 after pomalidomide (1 μM) treatment (FIG. 1A, lower panel). The increased p-Zap-70, p-LAT, as well as downstream p-ERK in PBMCs triggered by pomalidomide is also time-dependent (FIG. 1B). […] Since Zap-70 is a mediator of T-cell receptor signaling, whether IMiDs triggered p-Zap-70 in T cells from healthy volunteers was studied.

U266 cells = assay: NK-92 NK cell activity against calcein-AM-stained U266 cells; settings: NK-92 cells, 48 h; Pom 0.5 and 1 μM; CC-220 0.1 and 1 μM, E/T 2.5/1
Protocol: as §1, §2

Nc1cccc2c1C(=O)N(C1CCC(=O)NC1=O)C2=O (centres unmarked) [pomalidomide]
p-Zap-70 (immunoblotting) (Zap-70 [1]): induced increased p-Zap70
p-Zap-70 induced by pomalidomide in CRBN-knockdown versus control Sc KD cells (Zap-70 [2]; CRBN siRNA, pomalidomide 1 μM): No significant change
p-Zap-70 (immunoblotting) (Zap-70 [2]; pomalidomide 0.5 and 1 μM): similarly induced p-Zap-70 in Jurkat cells in a dose-dependent fashion
phosphorylation of LAT (immunoblotting) (Zap-70 [3]; 16 h, Pom 0.01-1 μM, Len 1 μM): induced phosphorylation of both Zap-70 and LAT in PBMCs in a dose-dependent fashion
phosphorylation of Zap-70 (immunoblotting) (Zap-70 [3]; 16 h, Pom 0.01-1 μM, Len 1 μM): induced phosphorylation of both Zap-70 and LAT in PBMCs in a dose-dependent fashion
increased p-Zap-70, Image J densitometric analysis (Zap-70 [3]; pomalidomide 1 μM, 16 h): 42%
increased p-Zap-70, p-LAT and downstream p-ERK over time (Zap-70 [3]; pomalidomide 0.1 and 1 μM, indicated time periods): time-dependent
NK cell activity against U266 cells (percent specific lysis) (U266 cells): upregulated NK activity
